Experimental data reported in ChEMBL document CHEMBL3045986, “Antifungal activity of prenylated flavonoids isolated from Tephrosia apollinea L. against four phytopathogenic fungi” (2013).
Converted amounts (≈) assume the structure as drawn.

Experiments:
Type in all cases: functional
Pestalotiopsis sp. [1] = experiment: Antifungal activity against Pestalotiopsis sp. assessed as growth inhibition at 1 mg/ml at 25 degC by agar well diffusion bioassay; details: read-out: GI
Colletotrichum acutatum [2] = experiment: Antifungal activity against Colletotrichum acutatum assessed as growth inhibition at 3 mg/ml at 25 degC by agar well diffusion bioassay; details: read-out: GI
Alternaria alternata [3] = experiment: Antifungal activity against Alternaria alternata assessed as growth inhibition at 3 mg/ml at 25 degC by agar well diffusion bioassay; details: read-out: GI
Colletotrichum acutatum [4] = experiment: Antifungal activity against Colletotrichum acutatum assessed as growth inhibition at 4 mg/ml at 25 degC by agar well diffusion bioassay; details: read-out: GI
Pestalotiopsis sp. [5] = experiment: Antifungal activity against Pestalotiopsis sp. assessed as growth inhibition at 4 mg/ml at 25 degC by agar well diffusion bioassay; details: read-out: GI
Alternaria alternata [6] = experiment: Antifungal activity against Alternaria alternata assessed as growth inhibition at 2 mg/ml at 25 degC by agar well diffusion bioassay; details: read-out: GI
Pestalotiopsis sp. [7] = experiment: Antifungal activity against Pestalotiopsis sp. assessed as growth inhibition at 2 mg/ml at 25 degC by agar well diffusion bioassay; details: read-out: GI
Helminthosporium [8] = experiment: Antifungal activity against Helminthosporium sp. assessed as growth inhibition at 4 mg/ml at 25 degC by agar well diffusion bioassay; details: read-out: GI
Alternaria alternata [9] = experiment: Antifungal activity against Alternaria alternata assessed as growth inhibition at 1 mg/ml at 25 degC by agar well diffusion bioassay; details: read-out: GI
Helminthosporium [10] = experiment: Antifungal activity against Helminthosporium sp. assessed as growth inhibition at 3 mg/ml at 25 degC by agar well diffusion bioassay; details: read-out: GI
Colletotrichum acutatum [11] = experiment: Antifungal activity against Colletotrichum acutatum assessed as growth inhibition at 25 degC after 48 hr by two-fold broth macrodilution method
Alternaria alternata [12] = experiment: Antifungal activity against Alternaria alternata assessed as growth inhibition at 4 mg/ml at 25 degC by agar well diffusion bioassay; details: read-out: GI
Pestalotiopsis sp. [13] = experiment: Antifungal activity against Pestalotiopsis sp. assessed as growth inhibition at 25 degC after 48 hr by two-fold broth macrodilution method
Helminthosporium [14] = experiment: Antifungal activity against Helminthosporium sp. assessed as growth inhibition at 25 degC after 48 hr by two-fold broth macrodilution method
Colletotrichum acutatum [15] = experiment: Antifungal activity against Colletotrichum acutatum assessed as growth inhibition at 2 mg/ml at 25 degC by agar well diffusion bioassay; details: read-out: GI
Alternaria alternata [16] = experiment: Antifungal activity against Alternaria alternata assessed as growth inhibition at 25 degC after 48 hr by two-fold broth macrodilution method
Helminthosporium [17] = experiment: Antifungal activity against Helminthosporium sp. assessed as growth inhibition at 2 mg/ml at 25 degC by agar well diffusion bioassay; details: read-out: GI
Pestalotiopsis sp. [18] = experiment: Antifungal activity against Pestalotiopsis sp. assessed as growth inhibition at 3 mg/ml at 25 degC by agar well diffusion bioassay; details: read-out: GI
Colletotrichum acutatum [19] = experiment: Antifungal activity against Colletotrichum acutatum assessed as growth inhibition at 1 mg/ml at 25 degC by agar well diffusion bioassay; details: read-out: GI
Helminthosporium [20] = experiment: Antifungal activity against Helminthosporium sp. assessed as growth inhibition at 1 mg/ml at 25 degC by agar well diffusion bioassay; details: read-out: GI

MIC (Colletotrichum acutatum [11]) [µg/mL] | MIC (Pestalotiopsis sp. [13]) [µg/mL] | MIC (Helminthosporium [14]) [µg/mL] | MIC (Alternaria alternata [16]) [µg/mL] | Structure (SMILES) | inhibition of growth at 1000 µg/mL (Pestalotiopsis sp. [1]) [%] | inhibition of growth at 3000 µg/mL (Colletotrichum acutatum [2]) [%] | inhibition of growth at 3000 µg/mL (Alternaria alternata [3]) [%] | inhibition of growth at 4000 µg/mL (Colletotrichum acutatum [4]) [%] | inhibition of growth at 4000 µg/mL (Pestalotiopsis sp. [5]) [%] | inhibition of growth at 2000 µg/mL (Alternaria alternata [6]) [%] | inhibition of growth at 2000 µg/mL (Pestalotiopsis sp. [7]) [%] | inhibition of growth at 4000 µg/mL (Helminthosporium [8]) [%] | inhibition of growth at 1000 µg/mL (Alternaria alternata [9]) [%] | inhibition of growth at 3000 µg/mL (Helminthosporium [10]) [%] | inhibition of growth at 4000 µg/mL (Alternaria alternata [12]) [%] | inhibition of growth at 2000 µg/mL (Colletotrichum acutatum [15]) [%] | inhibition of growth at 2000 µg/mL (Helminthosporium [17]) [%] | inhibition of growth at 3000 µg/mL (Pestalotiopsis sp. [18]) [%] | inhibition of growth at 1000 µg/mL (Colletotrichum acutatum [19]) [%] | inhibition of growth at 1000 µg/mL (Helminthosporium [20]) [%]
250 (≈ 595 µM) | 500 (≈ 1190 µM) | 250 (≈ 595 µM) | 500 (≈ 1190 µM) | CC(=O)O[C@@H]1C(C)(C)OC(=O)[C@]12COc1ccc3c(=O)cc(-c4ccccc4)oc3c12 [(+)-GLABRATEPHRIN] | 8 | 32.6 | 17 | 46.4 | 31.9 | 10 | 11.8 | 37.8 | 5.3 | 23.3 | 24.1 | 26.4 | 11.6 | 20.8 | 16.1 | 13.9
250 (≈ 595 µM) | 1000 (≈ 2380 µM) | 1000 (≈ 2380 µM) | 1000 (≈ 2380 µM) | CC(=O)O[C@@H]1C(C)(C)OC(=O)[C@@]12COc1ccc3c(=O)cc(-c4ccccc4)oc3c12 [ISOGLABRATEPHRIN] | 6.3 | 37 | 10.7 | 42.9 | 27.5 | 8.4 | 14.4 | 32.6 | 3.2 | 28.9 | 16.1 | 25.3 | 16.3 | 17 | 14.4 | 7.4
500 (≈ 1490 µM) | 500 (≈ 1490 µM) | 500 (≈ 1490 µM) | 1000 (≈ 2970 µM) | COc1ccc2c(=O)cc(-c3ccccc3)oc2c1/C=C/C(C)(C)O [LANCEOLATIN-A] | 8.4 | 22.6 | 8.1 | 32.6 | 29.7 | 6.6 | 16.3 | 16 | 3.3 | 10.7 | 14.1 | 15.2 | 7.7 | 23.8 | 10 | 4.1
125 (≈ 317 µM) | 250 (≈ 634 µM) | 250 (≈ 634 µM) | 500 (≈ 1270 µM) | CC(=O)OC(C1COc2ccc3c(=O)cc(-c4ccccc4)oc3c21)C(C)(C)O (stereo not given) [TEPHROAPOLLIN-F] | 21.7 | 40.3 | 23.3 | 58.3 | 51.7 | 16 | 26.1 | 46.5 | 11.9 | 36.3 | 32.8 | 31.9 | 24.6 | 45.1 | 23.3 | 18

Structure (SMILES) | MIC (Colletotrichum acutatum [11]) [µg/mL] | MIC (Pestalotiopsis sp. [13]) [µg/mL] | MIC (Helminthosporium [14]) [µg/mL] | MIC (Alternaria alternata [16]) [µg/mL] | inhibition of growth at 1000 µg/mL (Pestalotiopsis sp. [1]) [%] | inhibition of growth at 3000 µg/mL (Colletotrichum acutatum [2]) [%] | inhibition of growth at 3000 µg/mL (Alternaria alternata [3]) [%] | inhibition of growth at 4000 µg/mL (Colletotrichum acutatum [4]) [%] | inhibition of growth at 4000 µg/mL (Pestalotiopsis sp. [5]) [%] | inhibition of growth at 2000 µg/mL (Alternaria alternata [6]) [%] | inhibition of growth at 2000 µg/mL (Pestalotiopsis sp. [7]) [%] | inhibition of growth at 4000 µg/mL (Helminthosporium [8]) [%] | inhibition of growth at 1000 µg/mL (Alternaria alternata [9]) [%] | inhibition of growth at 3000 µg/mL (Helminthosporium [10]) [%] | inhibition of growth at 4000 µg/mL (Alternaria alternata [12]) [%] | inhibition of growth at 2000 µg/mL (Colletotrichum acutatum [15]) [%] | inhibition of growth at 2000 µg/mL (Helminthosporium [17]) [%] | inhibition of growth at 3000 µg/mL (Pestalotiopsis sp. [18]) [%] | inhibition of growth at 1000 µg/mL (Colletotrichum acutatum [19]) [%] | inhibition of growth at 1000 µg/mL (Helminthosporium [20]) [%]
COC(=O)Nc1nc2ccccc2[nH]1 [CARBENDAZIM] | 70 (≈ 366 µM) | 70 (≈ 366 µM) | 70 (≈ 366 µM) | 125 (≈ 654 µM) | 47.7 | 73.9 | 63 | 78.9 | 70.6 | 56.7 | 61.3 | 79 | 43.1 | 66.3 | 67.8 | 60.3 | 61.1 | 68.4 | 50.6 | 44.2
